Data on one compound can be found in US20230405004A1 (NEURORIVE INC, priority 2020, published 2023).

Assay [1] relates to 5xFAD mouse. The experiment in a line: Morris water maze (MWM) task. Type of assay: in vivo. As to conditions: for Escape latency (Increase or decrease compared to mutated mouse vehicle group): DAY 4; for time spent in the target quadrant (Increase or decrease compared to mutated mouse vehicle group): probe test DAY 5. The procedure:
The 5xFAD mouse used in this experiment was a genetically modified mouse model in which Alzheimer's disease-inducing genes were inserted. Specifically, mice over-expressed both the amyloid precursor protein with the Swedish mutation (K670N, M671L), the Florida mutation […], and the London mutation (V717I) and PS1 with the M146L and L286V mutations. The 5xFAD mouse model is the most widely used in Alzheimer's disease studies.
A Morris water maze (MWM) task was conducted to examine an effect on improving cognitive function depending on the administration of the complex composition of the present invention. The experimental equipment was comprised of a circular water tank (150 cm in diameter and 45 cm in height) filled with water having a temperature of about 22±2° C., an escape platform (10 cm in diameter and 30 cm in height), and 4 markers attached to the wall that allows the mouse to remember the location of the escape platform. The above markers remained unchanged throughout the test period. The escape platform was placed 1 cm above the water surface or 0.5 to 1.5 cm below the water surface according to the purpose of the experiment. When placed under the water surface, the water was made opaque with white water-based paint so that the escape platform was not visible to the eye. The Morris water maze was divided into four quadrants, i.e., northeast (NE), northwest (NW), southeast (SE) and southwest (SW), wherein the escape platform was placed in the center of the southwest quadrant, and the mouse started randomly from one of the others.
The escape platform was made visible on Learning DAY 0. Each mouse was trained to recognize that it was possible to escape when they swam toward the escape platform and landed thereon. On DAY 1-4, the escape platform was hidden by being placed under the water, and then the mice learned the position of the escape platform. The time limit was set to 60 seconds, and if the mouse found the escape platform within 60 seconds, it was allowed to stay on the escape platform for 5 seconds. The mice were then immediately transferred to the breeding cage. On DAY 5, the probe test was performed without the escape platform. The probe test was performed by placing the mouse in the farthest part of the quadrant where the escape platform was placed during the training day, and 60 seconds was set as the time limit. The indexes of cognitive function include the escape latency which is the time required for the mouse to find the escape platform and the time spent in the quadrant where the escape platform was placed. It was judged that the shorter the time it takes to escape (FIG. 2A) and the longer the mouse stays in the quadrant where the escape platform was placed (FIG. 2B), the better the memory and learning ability of the mouse.
Then, each group was subjected to oral administration for 4 weeks to perform the experiment.

Assay [2] deals with 5xFAD mouse. As to the kind of experiment: Y-maze test. The following applies: donepezil 2 mg/kg oral. It is filed as in vivo.
Method: In order to test an improvement effect on short-term working memory ability according to the administration of the complex composition of the present invention, a Y-maze test was performed using the mouse model of the Alzheimer's disease described above. For the experiment, a Y-shaped maze (36 cm in width, 16 cm in length, 15 cm in height) having three arms was used, and the mice started randomly in three arms. The mice were placed in the maze, then the number of times when the center of the mouse body entered each arm and the cases in which the mice entered each arm sequentially were checked. The alternation behavior is defined as consecutive entries in three different arms without overlapping, and spontaneous alternation behavior was calculated by the following equation:
Alternation (%)=(the number of entities into all the 3 arms on consecutive/the number of entirety arms entries−2)×100
Then, each group was subjected to oral administration to perform the experiment.

Consider `COc1cc2c(cc1OC)C(=O)C(CC1CCN(Cc3ccccc3)CC1)C2` (stereo not drawn) [Donepezil, donepezil], for which, in the assay on 5xFAD mouse [1] (donepezil 1 mg/kg oral 4 weeks), the “Escape latency (Increase or decrease compared to mutated mouse vehicle group)” value is given as −20.15% and the “time spent in the target quadrant (Increase or decrease compared to mutated mouse vehicle group)” value is recorded as 51.63%. Further, in the assay on 5xFAD mouse [1] (donepezil 2 mg/kg oral 4 weeks), the “Escape latency (Increase or decrease compared to mutated mouse vehicle group)” value is −33.79% and the “time spent in the target quadrant (Increase or decrease compared to mutated mouse vehicle group)” value is 148.46%. Besides, in the assay on 5xFAD mouse [1] (mutated mouse, donepezil 2 mg/kg alone, stated as reduction), the “escape latency reduced by, based on the mutant mouse vehicle group” value is listed as 33.79%. Besides, the “Voluntary alternation behavior (Increase or decrease compared to mutated mouse vehicle group)” value with 5xFAD mouse [2] came to 25.15%.
